Consider four compounds from patent US11866720B2, “Transgenic or non-transgenic plants with mutated protoporphyrinogen oxidase having increased tolerance to herbicides” (priority 2013, dated 2024).

For test [1], the system named is transgenic soybean expressing mutated PPO. The test is described as follows: Soybean segregating T1 individuals, greenhouse spray test (injury 0-9). It is filed as in vivo, Glycine max. To be noted: 1 week after treatment.
Test [2] shares this test system. It is filed as in vivo, Glycine max. The following applies: T1 soybean, field, 3 days after treatment; for injury (1-5 point scale): benzoxazin 50 g ai/ha.
Test [3] has as its system transgenic Arabidopsis thaliana plants expressing wildtype or mutated PPO. In words: Germination / growth inhibition assay of transgenic Arabidopsis T2 seeds in 48-well plates. To be noted: growth inhibition seven to ten days after seeding.

Several values for one entry are separate records, joined by “and”; a condition that tells them apart may be missing. Equal values may be shown once. Read-outs that look alike come from different tables or passages of the source.
For injury (1-5 point scale) in this document: key: 1: no obvious damage (no phytotoxicity); 2: minor amount of leaf damage, plant will survive; 3: moderate amount of leaf damage, plant will survive; 4: severe amount of leaf damage, plant will survive; 5: no surviving plants - all plants dead/dying.

Consider `C#CCN1C(=O)COc2cc(F)c(N3C(=O)C4=C(CCCC4)C3=O)cc21` [Flumioxazin, flumioxazin], for which the “injury (0-9 point scale)” value in test [1] (SDS10791 AmtuPPX2L R128A_F420I, Flumioxazin 150 g ai/ha) is 3 (5×) and 1 (3×); in test [1] (SDS-10642 AmtuPPX2L R128A_F420L, Flumioxazin 150 g ai/ha) it was 3 (3×) and 2 (2×) and 1 (2×) and 9; in test [1] (SDS-10648 AmtuPPX2L R128A_F420I, Flumioxazin 150 g ai/ha) it was 9 (5×) and 5 (3×); in test [1] (SDS-10652 AmtuPPX2L L397D_F420V, Flumioxazin 150 g ai/ha), 9 and 6 (3×) and 5 (2×) and 4 (2×); in test [1] (SDS-10787 AmtuPPX2L R128A_F420L, Flumioxazin 150 g ai/ha), 9 (2×) and 5 (4×) and 4 (2×); in test [1] (SDS-10985 AmtuPPX2L R128A_F420M, Flumioxazin 150 g ai/ha), 9 (3×) and 6 (2×) and 4 (2×) and 5. In addition, the “injury (0-9 point scale)” value was 6 (5×) and 5 (2×) and 9 in test [1] (SDS-10990 AmtuPPX2L R128A_F420M, Flumioxazin 150 g ai/ha); 5 (3×) and 4 and 6 (2×) and 9 and 3 in test [1] (SDS-11034 AmtuPPX2L R128A_F420V, Flumioxazin 150 g ai/ha); 9 in test [1] (wild type, Flumioxazin 150 g ai/ha).
Take `CCOc1cc(Oc2ccc(C(F)(F)F)cc2Cl)ccc1[N+](=O)[O-]` [Oxyfluorfen]: the “injury (0-9 point scale)” value is 4 (3×) and 8 and 5 (3×) and 3 in test [1] (SDS10791 AmtuPPX2L R128A_F420I, Oxyfluorfen 600 g ai/ha); 9 (2×) and 4 (2×) and 5 (4×) in test [1] (SDS10791 AmtuPPX2L R128A_F420I, Oxyfluorfen 1200 g ai/ha); 2 (3×) and 4 and 3 (3×) and 8 in test [1] (SDS-10642 AmtuPPX2L R128A_F420L, Oxyfluorfen 600 g ai/ha); 5 and 7 and 6 (2×) and 8 (2×) and 9 and 3 in test [1] (SDS-10648 AmtuPPX2L R128A_F420I, Oxyfluorfen 600 g ai/ha); 5 (3×) and 9 (4×) and 4 in test [1] (SDS-10648 AmtuPPX2L R128A_F420I, Oxyfluorfen 1200 g ai/ha); 4 (3×) and 5 and 6 (2×) and 9 in test [1] (SDS-10652 AmtuPPX2L L397D_F420V, Oxyfluorfen 600 g ai/ha). Besides, the “injury (0-9 point scale)” value in test [1] (SDS-10787 AmtuPPX2L R128A_F420L, Oxyfluorfen 600 g ai/ha) is 6 (3×) and 5 (2×) and 8; in test [1] (SDS-10985 AmtuPPX2L R128A_F420M, Oxyfluorfen 600 g ai/ha), 1 and 3 (3×) and 4 (3×) and 9; in test [1] (SDS-10985 AmtuPPX2L R128A_F420M, Oxyfluorfen 1200 g ai/ha), 5 (3×) and 4 (3×) and 8 (2×); in test [1] (SDS-10990 AmtuPPX2L R128A_F420M, Oxyfluorfen 600 g ai/ha), 4 (4×) and 8 and 3 and 9 and 5; in test [1] (SDS-10990 AmtuPPX2L R128A_F420M, Oxyfluorfen 1200 g ai/ha) it was 9 and 5 (5×) and 4 (2×); in test [1] (SDS-11034 AmtuPPX2L R128A_F420V, Oxyfluorfen 600 g ai/ha), 4 (3×) and 9 and 5 (3×). Besides, the “injury (0-9 point scale)” value in test [1] (wild type, Oxyfluorfen 600 g ai/ha) was 8 (3×) and 7 (3×) and 9 (2×).
On to `C1=Cc2ccccc2ON1` [benzoxazin], for which the “Injury rating (1-5 point scale)” value in test [2] (SDS-10562 LTM377-1 AmtuPPX2L_dG210, benzoxazin (50 gai/ha)) came to 3; in test [2] (SDS-10562 LTM377-1 AmtuPPX2L_dG210, benzoxazin (100 gai/ha)) it was 3; in test [2] (SDS-10566 LTM377-1 AmtuPPX2L_dG210, benzoxazin (50 gai/ha)) it was 3; in test [2] (SDS-10566 LTM377-1 AmtuPPX2L_dG210, benzoxazin (100 gai/ha)), 3; in test [2] (SDS-10656 LTM377-1 AmtuPPX2L_dG210, benzoxazin (50 gai/ha)), 4; in test [2] (SDS-10656 LTM377-1 AmtuPPX2L_dG210, benzoxazin (100 gai/ha)) it was 4. Besides, the “Injury rating (1-5 point scale)” value in test [2] (SDS-10998 LTM387-1 AmtuPPX2L_R128A_F420V, benzoxazin (50 gai/ha)) is on record as 2.5; in test [2] (SDS-10998 LTM387-1 AmtuPPX2L_R128A_F420V, benzoxazin (100 gai/ha)) it was 2.5; in test [2] (SDS-11034 LTM387-1 AmtuPPX2L_R128A_F420V, benzoxazin (50 gai/ha)), 2; in test [2] (SDS-11034 LTM387-1 AmtuPPX2L_R128A_F420V, benzoxazin (100 gai/ha)), 2; in test [2] (SDS-11035 LTM387-1 AmtuPPX2L_R128A_F420V, benzoxazin (50 gai/ha)), 2; in test [2] (SDS-11035 LTM387-1 AmtuPPX2L_R128A_F420V, benzoxazin (100 gai/ha)), 2. Also, the “Injury rating (1-5 point scale)” value in test [2] (SDS-11105 LTM387-1 AmtuPPX2L_R128A_F420V, benzoxazin (50 gai/ha)) is on record as 3; in test [2] (SDS-11105 LTM387-1 AmtuPPX2L_R128A_F420V, benzoxazin (100 gai/ha)) it was 3; in test [2] (SDS-11110 LTM387-1 AmtuPPX2L_R128A_F420V, benzoxazin (50 gai/ha)), 3; in test [2] (SDS-11110 LTM387-1 AmtuPPX2L_R128A_F420V, benzoxazin (100 gai/ha)) it was 3; in test [2] (Wildtype Jake, benzoxazin (50 gai/ha)), 5; in test [2] (Wildtype Jake, benzoxazin (100 gai/ha)), 5. Moreover, the “injury (1-5 point scale)” value in test [2] (SDS-10648 AmtuPPX2L R128A_F420I) was 3; in test [2] (SDS-10791 AmtuPPX2L R128A_F420I), 2; in test [2] (SDS-11014 AmtuPPX2L R128A_F420I) it was 2; in test [2] (SDS-11034 AmtuPPX2L L397D_F420V), 2; in test [2] (SDS-11035 AmtuPPX2L R128A_F420V), 2; in test [2] (SDS-11052 AmtuPPX2L R128A_F420M), 3. In addition, the “injury (1-5 point scale)” value in test [2] (wild type) is 5.
With `CCOC(=O)C(C)OC(=O)c1cc(Oc2ccc(C(F)(F)F)cc2Cl)ccc1[N+](=O)[O-]` (stereo not drawn) [Lactofen, lactofen], the “Relative tolerance rate as compared to a non-transgenic Arabidopsis plant (non-transgenic = 1.0)” value in test [3] (transgenic Arabidopsis AMATU_PPO2_F420I) was determined as 17; in test [3] (transgenic Arabidopsis AMATU_PPO2_F420L) it was 19; in test [3] (transgenic Arabidopsis AMATU_PPO2_F420M), 29; in test [3] (transgenic Arabidopsis AMATU_PPO2_R128A_F420I), 27; in test [3] (transgenic Arabidopsis AMATU_PPO2_R128A_F420L), 29; in test [3] (transgenic Arabidopsis AMATU_PPO2_R128A_F420M), 29. In addition, the “Relative tolerance rate as compared to a non-transgenic Arabidopsis plant (non-transgenic = 1.0)” value in test [3] (transgenic Arabidopsis AMATU_PPO2_R128L) turned out to be 22; in test [3] (transgenic Arabidopsis AMATU_PPO2_dG210) it was 19; in test [3] (transgenic Arabidopsis AMATU_PPO2_dG210_R128L), 29; in test [3] (transgenic Arabidopsis AMATU_PPO2_wt) it was 8.
